Laboratory results: a melting point compilation (Tetko et al.)

Row | melting point [°C] | SMILES
1 | 97 to 99 | CCOC(=O)/C(C#N)=C\Nc1ccc(CC)cc1
2 | 81 to 83 | COC(=O)c1ncccc1F
3 | 201 to 203 | Clc1ccc2nnc(-c3ccccc3)n2n1
4 | 159 to 161 | COC(=O)c1n[nH]c2ccccc12
5 | 72 to 74 | N#Cc1ccccc1Oc1ccccn1
6 | 159 to 161 | COc1cc(C)sc1C(=O)O
7 | 144 to 146 | CCOc1ccccc1-c1cccc(C(=O)O)c1
8 | 269 to 271 | Cc1ccc(C(=O)O)cc1NC(=O)c1ccccc1
9 | 120 to 122 | COc1ccc(-c2noc(CCC(=O)O)n2)cc1OC
10 | 107 to 109 | CCOc1cc(C(=O)N(C)C)ccc1N
11 | 129 to 131 | CC(C)c1ccc(C(=O)N2CCNCC2)cc1
12 | 236 to 238 | Cc1ccc(-c2cnnn2-c2ccc(C(=O)O)cc2)cc1
13 | 161 to 163 | Oc1nc(-c2ccccc2Cl)no1
14 | 189 to 191 | CSc1nc(Cl)ccc1C(=O)O
15 | 44 to 46 | COC(C)(C(=O)O)c1ccccc1 (stereo not given)
16 | 143 to 145 | NC(=NO)c1ccc(COc2ccccc2)cc1
17 | 73 to 75 | COC(C)c1nc(C(=O)O)cs1 (stereo not given)
18 | 139 to 141 | O=C(O)C1CCCN1c1ncnc2ccccc12 (stereo not given)
19 | 216 to 218 | Cc1cccc2cc(C(=O)O)oc12
20 | 83 to 85 | O=C(O)CCCn1nnc(-c2ccccc2)n1
21 | 108 to 110 | CCCNC(=O)c1ccc(Cl)nc1
22 | 95 to 97 | COc1ccc(N)cc1OCc1cccnc1
23 | 46 to 48 | Cc1ncc2ccccn12
24 | 169 to 171 | O=C(O)C1=NN(c2ccccc2)C(=O)CC1
25 | 137 to 139 | O=C(O)C1(c2ccc(F)cc2)CCCCC1

Row | melting point [°C] | SMILES
26 | 80 to 82 | Sc1cnnc2ccccc12
27 | 132 to 134 | Cc1cc(F)ccc1NC(=O)C=NO
28 | 201 to 203 | COc1ccc2cc[nH]c(=O)c2c1
29 | 168 to 170 | O=C(O)c1ccc(SCCCO)cc1
30 | 127 to 129 | c1ccc(CNc2nccs2)cc1
31 | 94 to 96 | COc1cccc(-c2cc(N)n(C)n2)c1
32 | 169 to 171 | Cc1c(C(=O)O)c(=O)oc2cc(F)ccc12
33 | 98 to 100 | O=c1[nH]c(CCl)nc2c1oc1ccccc12
34 | 200 to 206 | Cc1cccc(NC(=O)CSCC(=O)O)c1
35 | 193 to 195 | CCCS(=O)(=O)c1ccc(C(=O)O)cc1
36 | 165 to 167 | COc1cc(N)ccc1S(=O)(=O)Nc1ccc(F)c(Cl)c1
37 | 98 to 100 | CC(C)(C)c1cc(N)n(-c2ccc(F)cc2)n1
38 | 51 to 53 | CC(=O)NCCNCc1ccccc1
39 | 216 to 218 | Cc1cc(C(=O)NCC(=O)O)ccc1[N+](=O)[O-]
40 | 177 to 179 | Nc1ccc(Cn2cnc3ccccc32)cc1
41 | 79 to 81 | CCc1cc(Cl)nc(-c2ccccn2)n1
42 | 166 to 168 | CCOc1ccccc1C(=O)NCC(=O)O
43 | 107 to 111 | Cc1cc(C(=O)C(C)Cl)c(C)n1-c1ccc(Cl)cc1 (stereo not given)
44 | 258 to 260 | O=c1[nH]c2ccccc2nc1NO
45 | 170 to 172 | CC1Cc2ccccc2N1Cc1ccoc1C(=O)O (stereo not given)
46 | 143 to 145 | CC(C)(C)c1ccc(Oc2ccc(C(=O)O)cn2)cc1
47 | 49 to 51 | CC(C)c1ccc(C=CCC(=O)O)cc1
48 | 74 to 76 | O=C(O)CSCc1cccc(Cl)c1
49 | 199 to 201 | NC(=S)C(NC(=O)c1ccccc1)C1CC1 (stereo not given)
50 | 244 to 246 | CCc1cc(=O)n2c([nH]c3ccccc32)c1C#N

Row | melting point [°C] | SMILES
51 | 163 to 167 | CC(=O)N1CCc2ccccc2C1CC(=O)O (stereo not given)
52 | 166 to 168 | CCOC(=O)c1sc(-c2cccc([N+](=O)[O-])c2)cc1N
53 | 65 to 67 | O=C(O)CCCCCc1ccc(I)cc1
54 | 163 to 165 | COc1cc(C(C)=O)ccc1OCCCC(=O)O
55 | 63 to 74 | O=C(C(Cl)c1ccccc1)N1CCCCC1 (stereo not given)
56 | 163 to 165 | OCc1cc2ccccc2nc1Cl
57 | 204 to 206 | Oc1ccc(-c2cnc3ccccc3n2)cc1
58 | 215 to 217 | N#CC(C(=O)CCl)c1nc(-c2ccccc2)cs1 (stereo not given)
59 | 71 to 73 | O=C(CCl)Nc1cc(C(F)(F)F)ccc1Cl
60 | 141 to 143 | COc1ccc(-c2nc(CO)no2)cc1
61 | 162 to 164 | CN1C(=O)CC(C(=O)O)c2ccccc21 (stereo not given)
62 | 190 to 192 | C#CCNC(=O)Nc1ccccc1[N+](=O)[O-]
63 | 147 to 149 | CC1C(=O)NC(=O)N1c1ccccc1 (stereo not given)
64 | 59 to 61 | CCC(N)C(=O)NC(CC)c1ccc(C)cc1 (stereo not given)
65 | 66 to 68 | COc1ccc(Cl)cc1NC(=O)CCN
66 | 175 to 177 | c1ccc(COc2ccc3[nH]ncc3c2)cc1
67 | 51 to 53 | Cc1cccc(C)c1OCCC(=O)O
68 | 133 to 135 | Nc1nc(Cc2ccccc2)ns1
69 | 80 to 82 | Cc1csc(NCCc2ccccc2)n1
70 | 254 to 256 | COc1ccc2ccc(-c3nn(-c4ccccc4)cc3C(=O)O)cc2c1
71 | 169 to 171 | Cc1ccc(-c2csc(NC(=O)CCl)n2)cc1
72 | 172 to 174 | CCCC1(c2ccccc2)NC(=O)NC1=O (stereo not given)
73 | 126 to 128 | O=C(O)c1cccnc1S(=O)(=O)C(F)(F)F
74 | 169 to 171 | O=C(O)C(=O)Cc1ccc(Cl)c(Cl)c1

Further lines, the molecule ahead of its results:

Row | SMILES | melting point [°C]
75 | CSc1ncc(C(N)=O)c(N)n1 | 250 to 252
76 | Nc1cccc(NS(=O)(=O)c2ccc(Cl)cc2)c1 | 112 to 114
77 | NC(=O)c1c(NC(=O)CCl)sc2c1CCCC2 | 236 to 238
78 | c1cnc2c(c1)NCCC2 | 103 to 105
79 | O=[N+]([O-])c1ccc2c(c1)CCCN2 | 155 to 157
80 | O=C(O)CCc1nc(-c2cccs2)no1 | 108 to 110
81 | O=C(O)c1cnn(Cc2ccccc2)c1 | 149 to 151
82 | CC(C)Nc1ccc(Br)cc1[N+](=O)[O-] | 97 to 99
83 | CCS(=O)(=O)Nc1ccc(S(=O)(=O)Cl)c(C)c1 | 82 to 84
84 | Cc1ccc(N)c(-c2nc(C3CC3)n[nH]2)c1 | 205 to 207
85 | CCOC(=O)c1sc2nc(Cl)cc(C)c2c1C | 125 to 127
86 | O=C1Nc2cc(F)ccc2C1=O | 184 to 186
87 | CNC1(c2ccccc2Cl)CCCC(=Cc2cccs2)C1=O (stereo not given) | 129 to 131
88 | CN(C)C(=O)c1cnc(Cl)c(Cl)c1 | 89 to 91
89 | O=C(CCl)Nc1cc(C(F)(F)F)ccc1N1CCOCC1 | 155 to 157
90 | O=C(O)C=C1CCCC1 | 61 to 63
91 | CC(C)(C)OC(=O)N1CC2CNCC2C1 (stereo not given) | 29 to 31
92 | O=C1c2ccc([N+](=O)[O-])cc2C(=O)N1c1ccc(F)cc1 | 207 to 209
93 | O=C(c1cccc(F)c1)N1CCCNCC1 | 49 to 51
94 | O=[N+]([O-])c1cnccc1S | 109 to 111
95 | O=Cc1cc[nH]n1 | 139 to 141
96 | O=C(O)[C@@H](Cl)c1ccccc1 | 56 to 58
97 | Cc1ccc(Nc2snc(O)c2C#N)cc1 | 232 to 234
98 | N=C(N)c1ccc(N2CCCC2)cn1 | 209 to 211

Row | SMILES | melting point [°C]
99 | CCOC(=O)c1c(N)oc(C)c1C(C)=O | 135 to 137
100 | CCN1CCN(c2ccccc2N)CC1 | 39 to 43
101 | N#Cc1cccc(-c2cscn2)c1 | 111 to 113
102 | O=C(CN1CCNCC1)Nc1ccc(F)cc1 | 72 to 81
103 | NC(=O)CNS(=O)(=O)c1ccc(Br)c(C(=O)O)c1 | 226 to 228
104 | O=S(=O)(CCN1CCCC(O)C1)c1ccc(Br)cc1 (stereo not given) | 182 to 184
105 | CC(C)c1[nH]ncc1C(=O)O | 216 to 218
106 | Cn1ccnc(NN)c1=O | 131 to 133
107 | O=c1[nH]cnc2ccsc12 | 219 to 221
108 | NS(=O)(=O)CCCF | 45 to 47
109 | O=C(O)C1CCN(c2ccc(Cl)c(Cl)c2)C1=O (stereo not given) | 165 to 167
110 | CS(=O)(=O)c1cc(Br)cc(C(=O)O)c1F | 209 to 211
111 | Cc1cc(C)n2c(C=O)cnc2n1 | 169 to 171
112 | Cc1cc(C(=O)O)c2c(C(C)C)noc2n1 | 202 to 204
113 | COCCC(NC(C)=O)C(=O)O (stereo not given) | 152 to 154
114 | Nc1nc(-c2cccs2)ns1 | 163 to 165
115 | CCCc1nnc(S)n1CC(=O)O | 226 to 228
116 | Cn1c(C(C)(C)C)nc2cc(N)ccc21 | 164 to 166
117 | Nc1nc(Cl)nnc1Cl | 198 to 200
118 | Cc1cc(-c2nnn[nH]2)ccc1F | 109 to 111
119 | Cc1ccc2nc(-c3cccc(C)c3O)[nH]c2c1 | 244 to 246
120 | Cc1ccc(-c2nc(CCl)cs2)o1 | 71 to 73
121 | N#CCOc1ccc(CCl)cc1 | 63 to 65
122 | Cc1nc(-c2cc3c(s2)CCNC3)cs1 | 111 to 113

Row | SMILES | melting point [°C]
123 | Cc1ccc(C(=O)CBr)cc1C | 63 to 65
124 | CS(=O)(=O)c1ccc(Br)cc1N | 109 to 111
125 | O=Cc1cnn(-c2cccc(Cl)c2)n1 | 84 to 86
126 | CS(=O)(=O)N1CCc2cc(C(=O)CCl)ccc21 | 137 to 139
127 | CC1(C)CCCC(C)(C)N1O | 36 to 38
128 | Cc1sc2ncn(N)c(=O)c2c1C | 131 to 133
129 | NC(=S)CC(N)=S | 202 to 204
130 | O=C(O)Cc1csc(-c2ccc3c(c2)OCCO3)n1 | 188 to 190
131 | COCCn1c(C)cc(C(=O)CCl)c1C | 87 to 91
132 | CNCc1c(Cl)ncnc1N(C)C | 43 to 45
133 | Cc1nc[nH]c1C | 103 to 105
134 | Nc1ccc(Cl)cc1C(=O)Nc1ccncc1 | 169 to 171
135 | CN1NC=C2CN=C(Cl)N=C21 | 189 to 191
136 | O=C(O)CCc1csc2nc(C3CC3)cn12 | 240 to 242
137 | N#CCc1nc(N)nc(N)n1 | 280 to 282
138 | Cn1cc(-c2cccc(N)n2)cn1 | 132 to 134
139 | O=c1[nH]c(-c2cccc(Br)c2)no1 | 198 to 200
140 | Nc1ccc(S(=O)(=O)NC2CC2)cc1 | 145 to 147
141 | CC(Cl)C(=O)c1ccc(Br)cc1 (stereo not given) | 54 to 56
142 | CC(O)CN1C(=O)C=CC1=O (stereo not given) | 74 to 76
143 | O=C(c1ccc(Cl)cc1)c1ccc2c(c1)OCO2 | 128 to 130
144 | N#Cc1cc(F)cc(F)c1[N+](=O)[O-] | 95 to 97
145 | CC(=O)Nc1cc(F)c(S(=O)(=O)Cl)cc1Cl | 163 to 165
